Marks after values point to notes of the source that are not given here.
What was measured:
[1] = Absorption and fluorescence measurements (quantum yield, lifetime); format: physicochemical; details: MeOH; for extinction coefficient (log ε): at λmax; for fluorescence quantum yield, absolute method (ΦF(absol)): integrating sphere; for fluorescence quantum yield, relative method (ΦF(relat)): rhodamin-G6 as reference; for fluorescence lifetime (τF): λexc = 506.1 nm
Experimental: The singlet oxygen quantum yields (ΦΔ) and the fluorescence quantum yields (ΦF) of tested samples in MeOH were determined using published comparative (relative) methods with rhodamin-G6 used as a reference for fluorescence (ΦF = 0.94 in EtOH [31]), and bengal rose as a reference for singlet oxygen determinations (ΦΔ = 0.76 in MeOH [32]). Singlet oxygen measurements were performed with 1,3-diphenylisobenzofuran as the chemical scavenger of singlet oxygen by monitoring its decomposition at 417 nm. The ΦF values were also determined by an absolute method using an integrating sphere in an FLS1000 fluorimeter (Edinburgh Instruments, Edinburgh, UK). Fluorescence lifetimes were measured on the same fluorimeter upon excitation by HPL510 laser (Edinburgh Instruments, λ = 506.1 nm).

[2] = system: SK-MEL-28 cells; test: Dark toxicity (without irradiation), Neutral Red uptake; format: cell-based, human; details: 24 h in the dark, compounds precipitated over listed values
Experimental: (§1) The human cervical carcinoma (HeLa) and human melanoma (SK-MEL-28) cell lines were purchased from the American Type Cell Culture Collection (ATCC; Manassas, VA, USA). Both cell lines were cultured in Dulbecco’s modified Eagle’s medium (DMEM) without phenol red (Lonza, Verviers, Belgium) and supplemented with 10% heat-inactivated fetal bovine serum (Sigma-Aldrich (Merck, Darmstadt, Germany), 1% penicillin/streptomycin solution (Lonza), 10 mM HEPES buffer (Lonza), and 4 mM ultraglutamine I (alanyl-L-glutamine; Lonza). The cell lines were cultured in 75 cm^2 tissue culture flasks (TPP, Trasadingen, Switzerland) and maintained in a CO2 incubator at 37 °C in a humidified atmosphere of 5% CO2 and subcultured every 3−4 days. For the cytotoxicity experiments (phototoxicity and dark toxicity), cells were seeded into 96-well plates (TPP) at a density of 7.5 × 10^3 (HeLa and SK-MEL-28) cells per well for 24 h.
(§2) Stock solutions of the investigated compounds were prepared in DMSO at a concentration of 0.5 mM (4b) or 1 mM (all other compounds) and were sterilized by filtration through 0.22 μm syringe MCE filters. The stock solutions were diluted by the above-mentioned cell culture medium to the required concentrations. The maximum DMSO concentration in the medium in the experiments was 1% (2% in case of cpd. 4b). Cytoxicity of DMSO at corresponding concentrations (without studied compounds) was assessed in all cytotoxicity experiments as well—no toxicity against SK-MEL-28 or HeLa cells was observed.
To assess dark toxicities (inherent toxicities of the studied compounds without irradiation), SK-MEL-28 cells were treated with studied PSs for 24 h in the dark. Viability was evaluated after two washing steps using the Neutral Red (NR; Sigma-Aldrich (Merck, Darmstadt, Germany) uptake assay, based on the ability of the living cells to incorporate NR into their intact lysosomes (concentration of NR in cell culture medium was 30 μg/mL and incubation time with NR was 2 h). The absorbance of soluble NR in cell lysate was measured at λ = 540 nm using a Tecan Infinite 200 M plate reader (Tecan, Männedorf, Switzerland). The viability of each experimental group was expressed as the percentage of the untreated controls incubated under the same conditions (100%). After staining (before lysis), the cells were briefly investigated under the microscope to verify changes in cellular morphology and the presence of NR in lysosomes (orange-red spots in the cells). These observations were in agreement with NR measurements.
(§3) The concentrations of the studied compounds that induced a 50% decrease in cellular viability after treatment under the dark conditions (TC50, the median toxic concentration) or after the photodynamic treatment (EC50, the median effective concentration) were calculated using GraphPad Prism software (version 9.1.2; GraphPad Software, Inc., San Diego, CA, USA) for each independent experiment. The data are presented as the means ± standard deviations of these values.

[3] = system: human cervical carcinoma (HeLa) cells; test: Photodynamic activity (phototoxicity) after light activation, Neutral Red uptake; format: cell-based; details: for EC50: Homo sapiens, light or radiation study, HeLa, 12 h incubation, λ > 455 nm, 15.3 mW cm−2, 15 min, 13.7 J cm−2; for PDT activity improved over S3AlOHPc (fold): comparison with literature value of S3AlOHPc (ref 37); for EC50 higher than temoporfin (fold): comparison with literature value of temoporfin (ref 37)
Experimental: as §1, §2
(§4) For the photodynamic activity assessment experiments (phototoxicity), both HeLa and SK-MEL-28 cells were incubated overnight (12 h) with the studied compounds. The cells were then carefully and swiftly washed twice with a prewarmed sterile phosphate-buffered saline, fresh cell culture medium was added, and cells were subsequently irradiated for 15 min using a 450 W ozone-free Xe lamp (Newport; intensity reduced to 400 W). The lamp was equipped with a long-pass filter (Newport 20CGA-455) and an 8-cm water filter to cut off undesirable wavelengths and heat radiation, respectively (λ > 455 nm, 15.3 mW cm^−2, 15 min, 13.7 J cm^−2). Cellular viability was measured after an additional 24 h by the above-mentioned NR uptake assay. At least four independent experiments, each in triplicate, were performed.
as §3

[4] = system: human melanoma (SK-MEL-28) cells; test: as above; format: cell-based; details: for EC50: Homo sapiens, light or radiation study, 12 h incubation, λ > 455 nm, 15.3 mW cm−2, 15 min, 13.7 J cm−2
Experimental: as §1, §2, §4, §3

For `CC1=CC(C)=[N+]2C1=C(c1ccc(OCCCCCCCCN3C(=O)c4ccccc4C3=O)cc1)c1c(C)cc(C)n1[B-]2(F)F` [2b, 1,3,5,7-Tetramethyl-8-{4-[8-(phthalimidyl)octyloxy]phenyl}-4,4-difluoro-4-bora-3a,4a-diaza-s-indacene], the “absorption maximum (λmax)” value [1] was 498 nm, the “emission maximum (λF)” value [1] was 507 nm and the “extinction coefficient (log ε)” value [1] was 4.96. For the same molecule, the “fluorescence quantum yield, absolute method (ΦF(absol))” value [1] was 0.44, the “fluorescence quantum yield, relative method (ΦF(relat))” value [1] was 0.42 and the “fluorescence lifetime (τF)” value [1] was 2.88 ns. The “TC50, dark toxicity” value [2] was >10 ^b μM, the EC50 [3] was 2400 ± 530 nM and the “TC50/EC50, phototherapeutic index” value [4] was greater than 2.64. For the same molecule, the EC50 [4] was 3790 ± 200 nM.
With `CC1=C(I)C(C)=[N+]2C1=C(c1ccc(OCCCCCN3C(=O)c4ccccc4C3=O)cc1)c1c(C)c(I)c(C)n1[B-]2(F)F` [3a, 2,6-Diiodo-1,3,5,7-tetramethyl-8-{4-[5-(phthalimidyl)pentyloxy]phenyl}-4,4-difluoro-4-bora-3a,4a-diaza-s-indacene] the “absorption maximum (λmax)” value [1] was 530 nm, the “emission maximum (λF)” value [1] was 546 nm and the “extinction coefficient (log ε)” value [1] was 4.36. For the same molecule, the “fluorescence quantum yield, absolute method (ΦF(absol))” value [1] was 0.022, the “fluorescence quantum yield, relative method (ΦF(relat))” value [1] was 0.024 and the “fluorescence lifetime (τF)” value [1] was 0.17 ns. The “TC50, dark toxicity” value [2] was >10 ^b μM, the EC50 [3] was 140 ± 10 nM and the “PDT activity improved over S3AlOHPc (fold)” value [3] was 10 ×. The “EC50 higher than temoporfin (fold)” value [3] was 3 ×, the “TC50/EC50, phototherapeutic index” value [4] was greater than 192 and the EC50 [4] was 52 ± 10 nM.
With `CC1=C(I)C(C)=[N+]2C1=C(c1ccc(OCCCCCCCCN3C(=O)c4ccccc4C3=O)cc1)c1c(C)c(I)c(C)n1[B-]2(F)F` [3b, 2,6-Diiodo-1,3,5,7-tetramethyl-8-{4-[8-(phthalimidyl)octyloxy]phenyl}-4,4-difluoro-4-bora-3a,4a-diaza-s-indacene] the “absorption maximum (λmax)” value [1] was 530 nm, the “emission maximum (λF)” value [1] was 547 nm and the “extinction coefficient (log ε)” value [1] was 3.70. The “fluorescence quantum yield, absolute method (ΦF(absol))” value [1] was 0.030, the “fluorescence quantum yield, relative method (ΦF(relat))” value [1] was 0.023 and the “fluorescence lifetime (τF)” value [1] was 0.17 ns. For the same molecule, the “TC50, dark toxicity” value [2] was >10 ^b μM, the EC50 [3] was 1570 ± 330 nM and the “TC50/EC50, phototherapeutic index” value [4] was greater than 8.13. The EC50 [4] was 1230 ± 140 nM.
With `CC1=C(Br)C(C)=[N+]2C1=C(c1ccc(OCCCCCN3C(=O)c4ccccc4C3=O)cc1)c1c(C)c(Br)c(C)n1[B-]2(F)F` [4a, 2,6-Dibromo-1,3,5,7-tetramethyl-8-{4-[5-(phthalimidyl)pentyloxy]phenyl}-4,4-difluoro-4-bora-3a,4a-diaza-s-indacene] the “absorption maximum (λmax)” value [1] was 525 nm, the “emission maximum (λF)” value [1] was 540 nm and the “extinction coefficient (log ε)” value [1] was 4.72. The “fluorescence quantum yield, absolute method (ΦF(absol))” value [1] was 0.21, the “fluorescence quantum yield, relative method (ΦF(relat))” value [1] was 0.19 and the “fluorescence lifetime (τF)” value [1] was 1.37 ns. For the same molecule, the “TC50, dark toxicity” value [2] was >10 ^b μM, the EC50 [3] was 210 ± 20 nM and the “PDT activity improved over S3AlOHPc (fold)” value [3] was 10 ×. For the same molecule, the “EC50 higher than temoporfin (fold)” value [3] was 3 ×, the “TC50/EC50, phototherapeutic index” value [4] was greater than 123 and the EC50 [4] was 81 ± 23 nM.
In the case of `CC1=CC(C)=[N+]2C1=C(c1ccc(OCCCCCN)cc1)c1c(C)cc(C)n1[B-]2(F)F` [5a, 1,3,5,7-Tetramethyl-8-[4-(5-aminopentyloxy)phenyl]-4,4-difluoro-4-bora-3a,4a-diaza-s-indacene], the “absorption maximum (λmax)” value [1] is reported as 498 nm, the “emission maximum (λF)” value [1] is reported as 507 nm and the “extinction coefficient (log ε)” value [1] is reported as 4.90. The “fluorescence quantum yield, absolute method (ΦF(absol))” value [1] was 0.43, the “fluorescence quantum yield, relative method (ΦF(relat))” value [1] was 0.44 and the “fluorescence lifetime (τF)” value [1] was 3.25 ns. For the same molecule, the “TC50, dark toxicity” value [2] was >10 ^b μM, the EC50 [3] was 9400 ± 700 nM and the “TC50/EC50, phototherapeutic index” value [4] was greater than 2.78. The EC50 [4] was 3600 ± 660 nM.
In the case of `CC1=C(Br)C(C)=[N+]2C1=C(c1ccc(OCCCCCCCCN3C(=O)c4ccccc4C3=O)cc1)c1c(C)c(Br)c(C)n1[B-]2(F)F` [4b, 2,6-Dibromo-1,3,5,7-Tetramethyl-8-{4-[8-(phthalimidyl)octyloxy]phenyl}-4,4-difluoro-4-bora-3a,4a-diaza-s-indacene], the “absorption maximum (λmax)” value [1] is reported as 523 nm, the “emission maximum (λF)” value [1] is reported as 538 nm and the “extinction coefficient (log ε)” value [1] is reported as 4.04. The “fluorescence quantum yield, absolute method (ΦF(absol))” value [1] was 0.23, the “fluorescence quantum yield, relative method (ΦF(relat))” value [1] was 0.22 and the “fluorescence lifetime (τF)” value [1] was 1.54 ns. For the same molecule, the “TC50, dark toxicity” value [2] was >10 ^b μM, the EC50 [3] was 370 ± 70 nM and the “PDT activity improved over S3AlOHPc (fold)” value [3] was 10 ×. For the same molecule, the “EC50 higher than temoporfin (fold)” value [3] was 3 ×, the “TC50/EC50, phototherapeutic index” value [4] was greater than 45.5 and the EC50 [4] was 220 ± 50 nM.
With `CC1=CC(C)=[N+]2C1=C(c1ccc(OCCCCCCCCN)cc1)c1c(C)cc(C)n1[B-]2(F)F` [5b, 1,3,5,7-Tetramethyl-8-[4-(8-aminooctyloxy)phenyl]-4,4-difluoro-4-bora-3a,4a-diaza-s-indacene] the “absorption maximum (λmax)” value [1] was 498 nm, the “emission maximum (λF)” value [1] was 507 nm and the “extinction coefficient (log ε)” value [1] was 4.00. The “fluorescence quantum yield, absolute method (ΦF(absol))” value [1] was 0.50, the “fluorescence quantum yield, relative method (ΦF(relat))” value [1] was 0.47 and the “fluorescence lifetime (τF)” value [1] was 3.22 ns. For the same molecule, the “TC50, dark toxicity” value [2] was >10 ^b μM, the EC50 [3] was 1570 ± 330 nM and the “TC50/EC50, phototherapeutic index” value [4] was greater than 4.13. For the same molecule, the EC50 [4] was 2420 ± 460 nM.
